Assay results published in patent publication US12084436B2, “Heterocyclic compound” (Takeda Pharmaceutical Company Limited, priority 2019, dated 2024).

target: T1, HDAC6 enzyme (Homo sapiens, UniProt Q9UBN7); assay: HDAC6 enzyme inhibitory assay (HDAC-Glo I/II Assay kit, luminescence); format: biochemical; conditions: 10 μM test compound; wells without enzyme = 100% inhibition; read-out: HDAC6 inhibitory rate (%) (10 μM)
T1 construct: prepared by transducing full length HDAC6 gene into Sf-9 insect cells; GST; purchased SignalChem; host or cells: Sf-9 insect cells
T1 sequence (Q9UBN7 1-1215): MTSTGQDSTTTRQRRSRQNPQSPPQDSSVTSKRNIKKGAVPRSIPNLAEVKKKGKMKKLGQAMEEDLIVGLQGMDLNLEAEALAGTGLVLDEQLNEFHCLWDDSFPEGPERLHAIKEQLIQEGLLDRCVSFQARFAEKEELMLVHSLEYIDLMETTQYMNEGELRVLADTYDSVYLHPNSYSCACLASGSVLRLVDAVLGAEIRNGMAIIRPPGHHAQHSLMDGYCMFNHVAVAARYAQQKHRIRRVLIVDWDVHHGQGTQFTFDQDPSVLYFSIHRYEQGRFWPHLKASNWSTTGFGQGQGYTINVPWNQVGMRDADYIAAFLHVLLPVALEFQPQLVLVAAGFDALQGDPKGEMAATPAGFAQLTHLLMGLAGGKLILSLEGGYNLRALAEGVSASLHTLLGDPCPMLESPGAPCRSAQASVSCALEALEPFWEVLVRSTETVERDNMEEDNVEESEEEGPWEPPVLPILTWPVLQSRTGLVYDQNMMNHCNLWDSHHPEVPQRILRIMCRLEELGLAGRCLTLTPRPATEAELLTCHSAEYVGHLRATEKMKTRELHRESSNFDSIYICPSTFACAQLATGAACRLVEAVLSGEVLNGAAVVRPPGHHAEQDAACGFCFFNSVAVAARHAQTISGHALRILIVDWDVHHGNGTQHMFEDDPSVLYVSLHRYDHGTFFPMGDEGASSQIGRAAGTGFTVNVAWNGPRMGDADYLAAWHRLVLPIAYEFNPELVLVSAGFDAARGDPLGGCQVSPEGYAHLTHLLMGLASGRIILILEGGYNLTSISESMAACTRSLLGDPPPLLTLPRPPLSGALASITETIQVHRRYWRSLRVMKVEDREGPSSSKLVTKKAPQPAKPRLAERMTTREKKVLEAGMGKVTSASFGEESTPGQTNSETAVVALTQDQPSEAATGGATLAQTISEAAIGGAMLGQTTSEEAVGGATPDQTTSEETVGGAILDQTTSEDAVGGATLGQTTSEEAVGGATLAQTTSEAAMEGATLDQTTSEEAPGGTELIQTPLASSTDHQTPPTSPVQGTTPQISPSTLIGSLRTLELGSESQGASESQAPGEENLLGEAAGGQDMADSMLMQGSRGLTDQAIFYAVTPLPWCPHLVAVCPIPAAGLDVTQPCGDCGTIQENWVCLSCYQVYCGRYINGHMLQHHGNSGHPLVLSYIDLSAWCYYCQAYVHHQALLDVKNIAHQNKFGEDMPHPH
In short: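 Full-length human HDAC6, GST-purified from Sf-9 cells, was preincubated with compound for 60 min at room temperature in Tris-HCl pH 7.5 buffer with glutathione and Tween-20. Substrate-developer was then added, and luminescence was read after 20 min at room temperature. Inhibition was expressed relative to no-enzyme wells, taken as 100% inhibition.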

Going from `O=C1c2cc(-c3nnc(C(F)F)o3)ccc2CN1Nc1c(F)c(F)c(F)c(F)c1F` [Example 32c, 6-[5-(difluoromethyl)-1,3,4-oxadiazol-2-yl]-2-(pentafluoroanilino)-2,3-dihydro-1H-isoindol-1-one] to `O=C1c2cc(-c3nnc(C(F)F)o3)cnc2CN1Nc1c(F)c(F)c(F)c(F)c1F` [Example 33c, 3-[5-(difluoromethyl)-1,3,4-oxadiazol-2-yl]-6-(pentafluoroanilino)-6,7-dihydro-5H-pyrrolo[3,4-b]pyridin-5-one], the inhibition at 10 µM rises from 95% to 99%.

Compared with `O=C(Cn1ccnc1-c1cc(F)cc(-c2nnc(C(F)F)o2)c1)N1CCCC1` [Example 33a, 2-(2-{3-[5-(difluoromethyl)-1,3,4-oxadiazol-2-yl]-5-fluorophenyl}-1H-imidazol-1-yl)-1-(pyrrolidin-1-yl)ethan-1-one], `Fc1cc(-c2nnc(C(F)F)o2)cc(-c2nccn2Cc2cnccn2)c1` [Example 43a, 2-[(2-{3-[5-(difluoromethyl)-1,3,4-oxadiazol-2-yl]-5-fluorophenyl}-1H-imidazol-1-yl)methyl]pyrazine] is higher in inhibition at 10 µM: 86% for the first, 98% for the second.

Going from `CN1C(=O)c2cc(-c3nnc(C(F)F)o3)ccc2CC1c1ccc(F)cc1` (stereo not shown) [Example 33b, 7-[5-(difluoromethyl)-1,3,4-oxadiazol-2-yl]-3-(4-fluorophenyl)-2-methyl-3,4-dihydroisoquinolin-1(2H)-one] to `O=C1c2cc(-c3nnc(C(F)F)o3)ccc2CN1Nc1ccc(F)cn1` [Example 39c, 6-[5-(difluoromethyl)-1,3,4-oxadiazol-2-yl]-2-[(5-fluoropyridin-2-yl)amino]-2,3-dihydro-1H-isoindol-1-one], the inhibition at 10 µM falls from 100% to 88%.

Going from `CNC(=O)c1ccc(Cn2ccnc2-c2cc(F)cc(-c3nnc(C(F)F)o3)c2)cc1F` [Example 34a, 4-[(2-{3-[5-(difluoromethyl)-1,3,4-oxadiazol-2-yl]-5-fluorophenyl}-1H-imidazol-1-yl)methyl]-2-fluoro-N-methylbenzamide] to `FC(F)c1nnc(-c2cncc(-c3nccn3Cc3ccccc3)c2)o1` [Example 37a, 3-(1-benzyl-1H-imidazol-2-yl)-5-[5-(difluoromethyl)-1,3,4-oxadiazol-2-yl]pyridine], the inhibition at 10 µM rises from 98% to 99%.

`O=C1NN(c2ccc(F)c(F)c2)Cc2ncc(-c3nnc(C(F)F)o3)cc21` [Example 34b, 3-[5-(difluoromethyl)-1,3,4-oxadiazol-2-yl]-7-(3,4-difluorophenyl)-7,8-dihydropyrido[2,3-d]pyridazin-5(6H)-one] and `O=C1NN(c2ccc(F)c(Cl)c2)Cc2ncc(-c3nnc(C(F)F)o3)cc21` [Example 35b, 7-(3-chloro-4-fluorophenyl)-3-[5-(difluoromethyl)-1,3,4-oxadiazol-2-yl]-7,8-dihydropyrido[2,3-d]pyridazin-5(6H)-one] are the same in inhibition at 10 µM: 100% for the first, 100% for the second.

Going from `O=C1c2cc(-c3nnc(C(F)F)o3)ccc2CN1NC1CCOCC1` [Example 34c, 6-[5-(difluoromethyl)-1,3,4-oxadiazol-2-yl]-2-[(oxan-4-yl)amino]-2,3-dihydro-1H-isoindol-1-one] to `O=C1c2cc(-c3nnc(C(F)F)o3)ccc2CN1NC1CCC(F)(F)CC1` [Example 35c, 2-[(4,4-difluorocyclohexyl)amino]-6-[5-(difluoromethyl)-1,3,4-oxadiazol-2-yl]-2,3-dihydro-1H-isoindol-1-one], the inhibition at 10 µM rises from 92% to 93%.

Going from `Cn1ccc(OCc2ccccc2)c(-c2cc(F)cc(-c3nnc(C(F)F)o3)c2)c1=O` [Example 35a, 4-(benzyloxy)-3-{3-[5-(difluoromethyl)-1,3,4-oxadiazol-2-yl]-5-fluorophenyl}-1-methylpyridin-2(1H)-one] to `FC(F)c1nnc(-c2ccnc(-c3nccn3Cc3ccccc3)c2)o1` [Example 36a, 2-(1-benzyl-1H-imidazol-2-yl)-4-[5-(difluoromethyl)-1,3,4-oxadiazol-2-yl]pyridine], the inhibition at 10 µM rises from 98% to 101%.

Going from `O=C1c2cc(-c3nnc(C(F)F)o3)ccc2CN1Nc1ccc(F)c(F)c1` [Example 36c, 2-(3,4-difluoroanilino)-6-[5-(difluoromethyl)-1,3,4-oxadiazol-2-yl]-2,3-dihydro-1H-isoindol-1-one] to `O=C1c2cc(-c3nnc(C(F)F)o3)ccc2CN1Nc1ccc(F)c(Cl)c1` [Example 37c, 2-(3-chloro-4-fluoroanilino)-6-[5-(difluoromethyl)-1,3,4-oxadiazol-2-yl]-2,3-dihydro-1H-isoindol-1-one], the inhibition at 10 µM rises from 98% to 99%.

`FC(F)c1nnc(-c2ccnc(-c3ncc(Cl)n3Cc3ccccn3)c2)o1` [Example 38a, 2-[5-chloro-1-[(pyridin-2-yl)methyl]-1H-imidazol-2-yl}-4-[5-(difluoromethyl)-1,3,4-oxadiazol-2-yl]pyridine] and `FC(F)c1nnc(-c2ccnc(-c3nc(Cl)c(Cl)n3Cc3ccccn3)c2)o1` [Example 40a, 2-{4,5-dichloro-1-[(pyridin-2-yl)methyl]-1H-imidazol-2-yl}-4-[5-(difluoromethyl)-1,3,4-oxadiazol-2-yl]pyridine] are the same in inhibition at 10 µM: 98% for the first, 98% for the second.

`CN1C(=O)c2cc(-c3nnc(C(F)F)o3)cnc2CC1(C)c1ccc(F)c(F)c1` (stereo not shown) [Example 38b, 3-[5-(difluoromethyl)-1,3,4-oxadiazol-2-yl]-7-(3,4-difluorophenyl)-6,7-dimethyl-7,8-dihydro-1,6-naphthyridin-5(6H)-one] and `CN(Cc1ccc(F)c(F)c1)N1Cc2ccc(-c3nnc(C(F)F)o3)cc2C1=O` [Example 40c, 6-[5-(difluoromethyl)-1,3,4-oxadiazol-2-yl]-2-{[(3,4-difluorophenyl)methyl](methyl)amino}-2,3-dihydro-1H-isoindol-1-one] are the same in inhibition at 10 µM: 101% for the first, 101% for the second.

Going from `CN(C(=O)OC(C)(C)C)N1Cc2ccc(-c3nnc(C(F)F)o3)cc2C1=O` [Example 38c, tert-butyl {6-[5-(difluoromethyl)-1,3,4-oxadiazol-2-yl]-1-oxo-1,3-dihydro-2H-isoindol-2-yl}methylcarbamate] to `CCOC(=O)C(C)CN(C)N1Cc2ccc(-c3nnc(C(F)F)o3)cc2C1=O` (stereo not shown) [Example 43c, ethyl 3-[{6-[5-(difluoromethyl)-1,3,4-oxadiazol-2-yl]-1-oxo-1,3-dihydro-2H-isoindol-2-yl}(methyl)amino]-2-methylpropanoate], the inhibition at 10 µM falls from 97% to 94%.

Compared with `FC(F)c1nnc(-c2ccnc(-c3nc(Cl)cn3Cc3ccccn3)c2)o1` [Example 39a, 2-{4-chloro-1-[(pyridin-2-yl)methyl]-1H-imidazol-2-yl}-4-[5-(difluoromethyl)-1,3,4-oxadiazol-2-yl]pyridine], `O=C1COCC(Cc2ccccn2)N1c1cc(F)cc(-c2nnc(C(F)F)o2)c1` (stereo not shown) [Example 42a] is lower in inhibition at 10 µM: 98% for the first, 68% for the second.

First: O=C1OCC(Cc2ccccn2)N1c1cc(F)cc(-c2nnc(C(F)F)o2)c1 (stereo not shown) [Example 41a, 3-{3-[5-(difluoromethyl)-1,3,4-oxadiazol-2-yl)-5-fluorophenyl}-4-[(pyridin-2-yl)methyl]-1,3-oxazolidin-2-one]
Second: CN1C(=O)c2cc(-c3nnc(C(F)F)o3)ccc2OC1(C)c1cccnc1 (stereo not shown) [Example 43b, 6-[5-(difluoromethyl)-1,3,4-oxadiazol-2-yl]-2,3-dimethyl-2-(pyridin-3-yl)-2,3-dihydro-4H-1,3-benzoxazin-4-one]
The inhibition at 10 µM of the first is lower: 21% for the first, 100% for the second.

Going from `CN(CC1CCOCC1)N1Cc2ccc(-c3nnc(C(F)F)o3)cc2C1=O` [Example 41c, 6-[5-(difluoromethyl)-1,3,4-oxadiazol-2-yl]-2-{methyl[(oxan-4-yl)methyl]amino}-2,3-dihydro-1H-isoindol-1-one] to `CN(Cc1cc(Cl)ccc1O)N1Cc2ccc(-c3nnc(C(F)F)o3)cc2C1=O` [Example 42c, 2-{[(5-chloro-2-hydroxyphenyl)methyl](methyl)amino}-6-[5-(difluoromethyl)-1,3,4-oxadiazol-2-yl]-2,3-dihydro-1H-isoindol-1-one], the inhibition at 10 µM falls from 99% to 98%.
